Reference: patent US20110306638A1, “BENZISOXAZOLE PIPERIDINYL DERIVATIVES, PHARMACEUTICAL COMPOSITIONS COMPRISING THE DERIVATIVES AND THEIR USE” (NHWA PHARMA. CORPORATION, priority 2008, published 2011)
Marks after values point to notes of the source that are not given here.

Tests used:
5-HT2A receptor = molecular target: T1, 5-HT2A receptor (Homo sapiens, UniProt P28223); assay: In-vitro competitive binding to 5-HT2A receptor, [3H]-Ketanserin, transformed HEK293 cells
T1 construct: expressed in transfected cells; host or cells: HEK293
Procedure: All test samples were dissolved in DMSO at a concentration of 0.01 mol/L, and then diluted with deionized water to 100 umol/L.
HEK293 cells were transformed with plasmid carriers containing the gene coding for 5-HT2A receptor protein by using calcium phosphate transformation. Stable cell strains which could stably express 5-HT2A receptor protein were obtained from the transformed cells by cultivating in a culture media containing G418, selecting monoclones of the cell and performing radioactive ligand binding assay.
Beckman LS 6500 Scintillation Counter.
HEK-293 cells were infected with recombined viruses containing various genes described above. […] Cells were centrifuged at 1000 rpm for 5 min Culture media was discarded, and cell bodies were collected and stored at −20° C. in a freezer. The cell bodies were resuspended with Tris-HCl reaction buffer during assay.
After incubation at 37° C. for 15 min, the reaction mixture was immediately transferred into ice bath to terminate the reaction; the reaction mixture was quickly filtered through GF/C glass cellulose filter on a Millipore cell sample collector, and was then washed with eluting solution (50 mM Tris-HCl, PH 7.7, 3 ml×3) and dried in a microwave for 8-9 min. The filter was transferred into a 0.5 ml centrifuge tube, and 500 μl lipid soluble scintillation fluid was added. The centrifuge tube was allowed to stand in darkness for more than 30 min. Radioactivity was determined by counting Inhibition percentage of each compound on isotope ligand binding was calculated according to the following equation:
inhibition percentage(I %)=cpm of overall binding tube−cpm of compound/cpm of overall binding tube−cpm of nonspecific binding tube×100%.
Each compound was tested in two duplicate test tubes and two separate tests were performed.

Kunming mice [1] = assay: Acetic acid-induced abdominal writhing test in mice; assay type: in vivo
Procedure: Kunming mice, SPF KM mice purchased from […] SLAC LABORATORY ANIMAL CO. LTD and kept in normal environment.
The compounds were dissolved in water for injection at a concentration of 4 mg/ml, 2 mg/ml and 1 mg/ml and were given intragastrically to animals.
(§1) Three different doses (10, 20, and 40 mg/kg) were administered to the test groups.
Aspirin was used as a positive control and acetic acid writhing test was used.
30 mice (half male and half female) weighing 18-23 g were divided into five groups, including negative control group, positive control group, low dose group, medium dose group and high dose group:
Mice in test group received test drug (10 mg/kg, 20 mg/kg, 40 mg/kg) via intragastric administration. Negative control group received physiological saline (20 ml/kg) via oral administration. Positive control group received aspirin (200 mg/kg) via oral administration. One hour later, each group received 0.7% acetic acid 10 ml/kg intraperitoneally. Five minutes later, the number of writhes was counted within the subsequent 15 min period; inhibition percentage of writhing response in each test group was calculated by the following equation: […]

Kunming mice [2] = assay: Hot-plate test in mice; assay type: in vivo; details: 1 h post dose
Procedure: Kunming mice, SPF KM mice were purchased from […] SLAC LABORATORY ANIMAL CO. LTD and kept in normal environment.
The compounds were dissolved in water for injection at a concentration of 4 mg/ml, 2 mg/ml and 1 mg/ml and were given subcutaneously to animals.
as §1
Morphine was used as a positive control and hot plate test was used.
30-40 mice (half male and half female) weighed from 18 to 23 gram were used. First, each mouse was placed on a hot plat at 55° C. to determine basic pain threshold for 2-3 times. Those animals with basic pain threshold of 5-30 s were qualified, unqualified mice were not used. 30 qualified mice were divided into five groups, including negative control group, positive control group, low-dose group, medium-dose group and high-dose group:
Mice in test groups received test sample solution (10 mg/kg, 20 mg/kg, 40 mg/kg) via subcutaneous injection in the neck. Positive control group received subcutaneous injection of morphine (2 mg/kg). One hour later, pain threshold values were determined for mice in each group as post-drug pain threshold. Percentage increase in pain threshold was calculated according to the following equation: […]

[3] = molecular target: opioid receptor subtype μ (Homo sapiens, UniProt P35372); assay: Competitive binding to opioid receptor subtype μ, [3H]Diprenorphine
Procedure: (§2) The respective test compounds were added to the sample tube (final concentration of 10^−5M), incubated at 37° C. for 30 min and placed in ice bath to terminate the reaction. The reaction mixture was filtered through GF/C (Whatman) glass fiber filter by vacuum filtration on a Millipore sample collector. The filter was washed three times with 50 mM Tris-HCl (pH7.4), each with 4 ml; dried and transferred into a 0.5 ml Eppendorf tube, in which 0.5 ml lipophilic scintillation fluid was added. Radioactivity was detected by a LS6500 scintillation counter. Each concentration had three duplicate test tubes and each separate test was repeated 3 to 4 times.
(§3) Specific binding CMP value for each sample tube=overall binding CPM value for each sample tube−CPM value of non-specific binding tube.
(§4) [Inhibition percentage of competitive binding between the test compound and different opioid receptor subtypes (%)=(100%−specific binding (CPM value)of sample tube/specific binding(CPM value)of solvent group×100%)]
(§5) Average was taken for each test drug from three duplicate tubes; each test was repeated two or more times.

[4] = molecular target: opioid receptor subtype δ (Homo sapiens, UniProt P41143); assay: Competitive binding to opioid receptor subtype δ, [3H]Diprenorphine
Procedure: as §2, §3, §4
Average was taken for each test drug from three duplicate tubes; each test was repeated two or more times. Data were presented as mean±SE and statistical comparison was made by ANOVA.

[5] = molecular target: opioid receptor subtype κ (Homo sapiens, UniProt P41145); assay: Competitive binding to opioid receptor subtype κ, [3H]Diprenorphine
Procedure: as §2, §3, §4, §5

[6] = Acute toxicity, single intragastric administration to mice; details: mouse, in vivo, po, Bliss method
Description: Statistics were made according to Bliss method (“Experimental Design and Statistical Basis for Drug Evaluation”, Changxiao Liu, Ruiyuan Su, first edition, Military Medical Science Press, 1993, 80-90).

[7] = Animal model study of II-9 (repeated dosing, addiction potential, oral absorption); assay type: in vivo
[8] = affinity to 5-HT2A receptor, concentration gradient test

Q: What does the source list for N#Cc1ccc2ccn(CCCCN3CCC(c4noc5cc(F)ccc45)CC3)c2c1 [II-9, 1-(4-(4-(6-fluorobenzo[d]isoxazol-3-yl)piperidin-1-yl)butyl)-1H-indole-6-carbonitrile]?
A: IC50 (5-HT2A receptor; [8]): 2.92 nM; Ki (5-HT2A receptor; [8]): 1.97 nM; inhibitory activity on 5-HT2A (in words) (5-HT2A receptor; compared with Aripiprazole): potent inhibitory activities; inhibition at 10 µM (5-HT2A receptor; read-out: 5-HT2A [3H]-Ketanserin inhibition percentage): 99.3%; Inhibition percentage of writhing response (Kunming mice [1]; 10 mg/kg intragastric administration): 100** %; Inhibition percentage of writhing response (Kunming mice [1]; 20 mg/kg intragastric administration): 99.05* %; Inhibition percentage of writhing response (Kunming mice [1]; 40 mg/kg intragastric administration): 100** %; Percentage increase in pain threshold (Kunming mice [2]; 10 mg/kg S.c.): 97.98* %; Percentage increase in pain threshold (Kunming mice [2]; 20 mg/kg S.c.): 220.49** %; Percentage increase in pain threshold (Kunming mice [2]; 40 mg/kg S.c.): 229.39** %; affinity to opioid receptor subtype μ (in words) [3]: no obvious affinity; inhibition at 10 µM ([3]; tested concentration 10^−5 mol/L, read-out: μ inhibition percentage of competitive binding): 53.4 ± 0.7%; affinity to opioid receptor subtype δ (in words) [4]: no obvious affinity; inhibition at 10 µM ([4]; tested concentration 10^−5 mol/L, read-out: δ inhibition percentage of competitive binding): 0%; affinity to opioid receptor subtype κ (in words) [5]: no obvious affinity; inhibition at 10 µM ([5]; tested concentration 10^−5 mol/L, read-out: κ inhibition percentage of competitive binding): 28.5 ± 1.3%; LD50 [6]: 800 mg/kg; drug tolerance ([7]; after repeated dosing): No drug tolerance is observed; potential for addiction ([7]; in vivo): rather low; absorption through oral administration ([7]; oral): well absorbed
